Assay results as given in ChEMBL document CHEMBL3046389, “Synthesis and biological evaluation of novel hydroquinone dimethyl ethers as potential anticancer and antimicrobial agents” (2013).
Values after ≈ are worked out from the molar mass of the structure shown.

Legend:
Assay type in all cases: functional
M14 [1] = test: Anticancer activity against Homo sapiens (human) M14 cells after 48 hr by SRB assay; settings: M14, 48 h
OVCAR-8 [2] = test: Anticancer activity against Homo sapiens (human) OVCAR8 cells after 48 hr by SRB assay; settings: OVCAR-8, 48 h
SNB-19 [3] = test: Growth inhibition of Homo sapiens (human) SNB19 cells at 10 uM after 48 hr by SRB assay; settings: SNB-19, 48 h, read-out: GI
Hs-578T = test: Anticancer activity against Homo sapiens (human) Hs 578T cells after 48 hr by SRB assay
SK-MEL-2 = test: Anticancer activity against Homo sapiens (human) SK-MEL-2 cells after 48 hr by SRB assay; settings: SK-MEL-2, 48 h
MDA-MB-468 [4] = test: Growth inhibition of Homo sapiens (human) MDA-MB-468 cells at 10 uM after 48 hr by SRB assay; settings: MDA-MB-468, 48 h, read-out: GI
LOX IMVI = test: Growth inhibition of Homo sapiens (human) LOXIMVI cells at 10 uM after 48 hr by SRB assay; settings: read-out: GI
HCC 2998 = test: Anticancer activity against Homo sapiens (human) HCC2998 cells after 48 hr by SRB assay; settings: HCC 2998, 48 h
SNB-75 = test: Growth inhibition of Homo sapiens (human) SNB75 cells at 10 uM after 48 hr by SRB assay; settings: SNB-75, 48 h, read-out: GI
A498 = test: Anticancer activity against Homo sapiens (human) A498 cells after 48 hr by SRB assay; settings: A498, 48 h
CCRF-CEM = test: Anticancer activity against Homo sapiens (human) CCRF-CEM cells after 48 hr by SRB assay
SNB-19 [5] = test: Anticancer activity against Homo sapiens (human) SNB19 cells after 48 hr by SRB assay; settings: SNB-19, 48 h
K562 = test: Anticancer activity against Homo sapiens (human) K562 cells after 48 hr by SRB assay; settings: K562, 48 h
UO-31 = test: Anticancer activity against Homo sapiens (human) UO31 cells after 48 hr by SRB assay; settings: UO-31, 48 h
MDA-MB-231 = test: Anticancer activity against Homo sapiens (human) MDA-MB-231/ATCC cells after 48 hr by SRB assay; settings: MDA-MB-231, 48 h
Pseudomonas aeruginosa = test: Antimicrobial activity against Pseudomonas aeruginosa ATCC 10145 after 48 hr by two-fold serial broth dilution method; settings: ATCC 10145, 48 h
MDA-MB-435 = test: Anticancer activity against Homo sapiens (human) MDA-MB-435 cells after 48 hr by SRB assay; settings: MDA-MB-435, 48 h
OVCAR-3 = test: Growth inhibition of Homo sapiens (human) OVCAR3 cells at 10 uM after 48 hr by SRB assay; settings: OVCAR-3, 48 h, read-out: GI
M14 [6] = test: Growth inhibition of Homo sapiens (human) M14 cells at 10 uM after 48 hr by SRB assay; settings: M14, 48 h, read-out: GI
HOP-62 = test: Anticancer activity against Homo sapiens (human) HOP62 cells after 48 hr by SRB assay; settings: HOP-62, 48 h
PC-3 = test: Anticancer activity against Homo sapiens (human) PC3 cells after 48 hr by SRB assay; settings: PC-3, 48 h
HCT-15 [7] = test: Anticancer activity against Homo sapiens (human) HCT15 cells after 48 hr by SRB assay; settings: HCT-15, 48 h
UACC-62 = test: Anticancer activity against Homo sapiens (human) UACC62 cells after 48 hr by SRB assay; settings: UACC-62, 48 h
ACHN = test: Growth inhibition of Homo sapiens (human) ACHN cells at 10 uM after 48 hr by SRB assay; settings: read-out: GI
A549 = test: Anticancer activity against Homo sapiens (human) A549/ATCC cells after 48 hr by SRB assay; settings: A549, 48 h
NCI/ADR-RES = test: Anticancer activity against Homo sapiens (human) NCI/ADR-RES cells after 48 hr by SRB assay
T47D = test: Growth inhibition of Homo sapiens (human) T47D cells at 10 uM after 48 hr by SRB assay; settings: read-out: GI
MDA-MB-468 [8] = test: Anticancer activity against Homo sapiens (human) MDA-MB-468 cells after 48 hr by SRB assay; settings: MDA-MB-468, 48 h
HCT-116 [9] = test: Growth inhibition of Homo sapiens (human) HCT116 cells at 10 uM after 48 hr by SRB assay; settings: HCT-116, 48 h, read-out: GI
HCT-15 [10] = test: Growth inhibition of Homo sapiens (human) HCT15 cells at 10 uM after 48 hr by SRB assay; settings: HCT-15, 48 h, read-out: GI
OVCAR-8 [11] = test: Growth inhibition of Homo sapiens (human) OVCAR8 cells at 10 uM after 48 hr by SRB assay; settings: OVCAR-8, 48 h, read-out: GI
HCT-116 [12] = test: Anticancer activity against Homo sapiens (human) HCT116 cells after 48 hr by SRB assay; settings: HCT-116, 48 h
SK-MEL-5 = test: Anticancer activity against Homo sapiens (human) SK-MEL-5 cells after 48 hr by SRB assay; settings: SK-MEL-5, 48 h
[13] = read-out: LC50 (the source's name)

## COc1ccc(OC)c(/C=C/C(=O)N/N=C/c2ccc(Cl)cc2)c1
M14 [1]
  GI50: 0.0879 µM
  LC50: > 100 µM
  TGI: 6.7 µM
OVCAR-8 [2]
  GI50: 0.35 µM
  LC50: > 100 µM
  TGI: > 100 µM
SNB-19 [3]
  inhibition of growth at 10 µM: 77.4%
Hs-578T
  GI50: 0.284 µM
  TGI: > 100 µM
Hs-578T; [13]
  CC50: > 100 µM
SK-MEL-2
  GI50: 24.7 µM
  TGI: > 100 µM
SK-MEL-2; [13]
  CC50: > 100 µM
MDA-MB-468 [4]
  inhibition of growth at 10 µM: 104%
LOX IMVI
  inhibition of growth at 10 µM: 63.3%
HCC 2998
  GI50: 0.139 µM
  TGI: 1.19 µM
HCC 2998; [13]
  CC50: 6.52 µM
SNB-75
  inhibition of growth at 10 µM: 56%
A498
  GI50: 0.182 µM
  LC50: > 100 µM
  TGI: 27.5 µM
CCRF-CEM
  GI50: 0.228 µM
  TGI: > 100 µM
CCRF-CEM; [13]
  CC50: > 100 µM
SNB-19 [5]
  GI50: 0.34 µM
  TGI: > 100 µM
SNB-19 [5]; [13]
  CC50: > 100 µM
K562
  GI50: 0.0488 µM
  TGI: > 100 µM
K562; [13]
  CC50: > 100 µM
UO-31
  GI50: 3.37 µM
  LC50 (50% lethal concentration): > 100 µM
  TGI: > 100 µM
MDA-MB-231
  GI50: 1.37 µM
  TGI: > 100 µM
MDA-MB-231; [13]
  CC50: > 100 µM
Pseudomonas aeruginosa
  MBC: 50 µg/mL (≈ 145 µM)
  MIC: 50 µg/mL (≈ 145 µM)
MDA-MB-435
  GI50: 0.0311 µM
  TGI: 0.0988 µM
MDA-MB-435; [13]
  CC50: > 100 µM
OVCAR-3
  inhibition of growth at 10 µM: 143%
M14 [6]
  inhibition of growth at 10 µM: 134%
HOP-62
  GI50: 0.162 µM
  TGI: 50.2 µM
HOP-62; [13]
  CC50: > 100 µM
PC-3
  GI50: 0.169 µM
  TGI: > 100 µM
PC-3; [13]
  CC50: > 100 µM
HCT-15 [7]
  GI50: 0.0835 µM
  TGI: > 100 µM
HCT-15 [7]; [13]
  CC50: > 100 µM
UACC-62
  GI50: 0.068 µM
  LC50: > 100 µM
  TGI: > 100 µM
ACHN
  inhibition of growth at 10 µM: 51.6%
A549
  GI50: 0.242 µM
  TGI: > 100 µM
A549; [13]
  CC50: > 100 µM
NCI/ADR-RES
  GI50: 0.0391 µM
  LC50: 90.6 µM
  TGI: 0.233 µM
T47D
  inhibition of growth at 10 µM: 70.5%
MDA-MB-468 [8]
  GI50: 0.142 µM
  TGI: 0.445 µM
MDA-MB-468 [8]; [13]
  CC50: > 100 µM
HCT-116 [9]
  inhibition of growth at 10 µM: 94.3%
HCT-15 [10]
  inhibition of growth at 10 µM: 70.6%
OVCAR-8 [11]
  inhibition of growth at 10 µM: 79%
HCT-116 [12]
  GI50: 0.075 µM
  TGI: 3.05 µM
HCT-116 [12]; [13]
  CC50: > 100 µM
SK-MEL-5
  GI50: 0.0581 µM
  LC50: > 100 µM
